{"source": "patent US6068838A", "about": "“Purified multimerase” (Baxter Aktiengesellschaft, priority 1996, dated 2000)", "molecules": {"B1": {"name": "plasmin: human plasmin from Chromogenics, serine protease used as comparison (protein, UniProt P00747 20-580; P00747 581-810, looked up)", "Plasmin heavy chain A": "EPLDDYVNTQGASLFSVTKKQLGAGSIEECAAKCEEDEEFTCRAFQYHSKEQQCVIMAENRKSSIIIRMRDVVLFEKKVYLSECKTGNGKNYRGTMSKTKNGITCQKWSSTSPHRPRFSPATHPSEGLEENYCRNPDNDPQGPWCYTTDPEKRYDYCDILECEEECMHCSGENYDGKISKTMSGLECQAWDSQSPHAHGYIPSKFPNKNLKKNYCRNPDRELRPWCFTTDPNKRWELCDIPRCTTPPPSSGPTYQCLKGTGENYRGNVAVTVSGHTCQHWSAQTPHTHNRTPENFPCKNLDENYCRNPDGKRAPWCHTTNSQVRWEYCKIPSCDSSPVSTEQLAPTAPPELTPVVQDCYHGDGQSYRGTSSTTTTGKKCQSWSSMTPHRHQKTPENYPNAGLTMNYCRNPDADKGPWCFTTDPSVRWEYCNLKKCSGTEASVVAPPPVVLLPDVETPSEEDCMFGNGKGYRGKRATTVTGTPCQDWAAQEPHRHSIFTPETNPRAGLEKNYCRNPDGDVGGPWCYTTNPRKLYDYCDVPQCAAPSFDCGKPQVEPKKCPGR", "Plasmin light chain B": "VVGGCVAHPHSWPWQVSLRTRFGMHFCGGTLISPEWVLTAAHCLEKSPRPSSYKVILGAHQEVNLEPHVQEIEVSRLFLEPTRKDIALLKLSSPAVITDKVIPACLPSPNYVVADRTECFITGWGETQGTFGAGLLKEAQLPVIENKVCNRYEFLNGRVQSTELCAGHLAGGTDSCQGDSGGPLVCFEKDKYILQGVTSWGLGCARPNKPGVYVRVSRFVTWIEGVMRNN", "modifications": "Plasmin", "notes": "human plasmin from Chromogenics, serine protease used as comparison"}}, "key": {"calf skin collagen": {"tested_on": "calf skin collagen", "test": "Incubation of other proteins with the purified protease: collagen", "format": "biochemical", "conditions": "0.4 mg/ml, undiluted barium-preincubated protease, 1 M urea, pH 8.0, 24 hours at 37° C."}, "[1]": {"test": "Plasmin activity of the protease preparation with chromogenic substrate", "format": "biochemical", "conditions": "preparation after copper chelate affinity chromatography", "excerpt": "Thus, it was necessary to exclude the possibility that the protease preparation might effect a degradation of the von Willebrand factor multimers due to plasmin present in the preparation rather than as a result of the vWF-specific protease."}, "human fibrinogen": {"tested_on": "human fibrinogen", "test": "Incubation of other proteins with the purified protease: fibrinogen", "format": "biochemical", "conditions": "0.4 mg/ml, undiluted barium-preincubated protease, 1 M urea, pH 8.0, 24 hours at 37° C."}, "vWF from cryoprecipitate": {"tested_on": "vWF from cryoprecipitate", "test": "Degradation of plasmatic vWF (cryoprecipitate, highest molecular weight multimers) by vWF protease", "format": "biochemical, human"}, "vWF [2]": {"tested_on": "vWF", "test": "Polypeptide subunits and N-terminal sequence of vWF degraded by the purified protease", "format": "biochemical, human", "conditions": "from N-terminal sequences of 250, 170 and 140 kD bands", "procedure": "For analysis of the amino acid composition and of amino acid sequence, the unreduced peak fraction of the protease and the reduced vWF fragments were dialyzed against 1 mM EDTA, were lyophilized, and were redissolved in 1/50 of the original volume before SDS-PAGE. The HMW protein bands were electrotransferred from the gel to a PVDF (polyvinyliden-difluoride) membrane (BioRad) for 6 hours at 26 V and 0.4 A, using 0.05% SDS, 10% methanol, 0.05 M boric acid, pH 9.0, as transfer buffer. After transfer, the membrane was stained with Coomassie-Blue in 40% methanol, destained in 40% methanol and 10% acetic acid, and air-dried. The excised bands were transferred to the blot cartridge of the Applied Biosystems Model 477A sequenator, which was equipped with on-line high-performance liquid chromatography for analysis of phenylthiohydantoin derivatives, For analysis of amino acid compositions, the protein bands were hydrolyzed in the gas phase over 6N HCl for 22 hours at 110° C. The amino acids were extracted from the PVDF membrane with 70% 0.1 N HCl/30% methanol and were determined by high-performance liquid chromatography as phenylthiocarbamyl derivatives. The amino acid composition of the unreduced protein band coeluted from the Sephacryl S-300 HR column together with the protease activity is shown in Table 1. […]"}, "BSA": {"tested_on": "BSA", "test": "Incubation of other proteins with the purified protease: BSA", "format": "biochemical", "conditions": "0.2 mg/ml, undiluted barium-preincubated protease, 1 M urea, pH 8.0, 24 hours at 37° C."}, "[3]": {"test": "Stability of the protease in solution", "format": "physicochemical", "excerpt": "In the absence of these ions the protease was quite stable in solution, and thus it was possible to purify the enzyme by chromatographic procedures taking place for several days at room temperature."}, "[4]": {"tested_on": "Recombinant vWF factor (r-vWF)", "test": "Proteolytic fragmentation of recombinant vWF by the vWF protease preparation", "format": "biochemical", "procedure": "The buffer system which had been sufficiently optimized for the instant assaying system thus comprised a dialysis Solution with 1 M urea in 5 mM Tris-HCl at pH 8. Full activation of the protease was achieved by preincubation for 5 minutes at 37° C. with 10 mM barium chloride. In a typical experiment, 50 μl activated protease solution and 100 μl substrate solution were carefully placed on a floating membrane, and incubated in a closed tube for 24 h in a dry oven at 37° C.\nRecombinant vWF factor (r-vWF), produced according to FEBS-Letters 375, 259-262 (1995) with a concentration of 104 U (Ag)/ml in 20 mM TBS buffer, pH 8.3, was incubated as described above with the vWF protease preparation according to the invention.\nAnalysis of the r-vWF and its proteolytic degradation products was performed on 1% and 2% agarose gels, also according to the method of Ruggeri et al. (Blood 57 (1981), 1140-1143). The vWF multimers were made visible by immunoenzymatic staining according to Aihara et al. (Thromb. Haemostas. 55 (1986), 263-267). A rabbit-anti-von Willebrand factor-antiserum (from Dakopatts, Glostrup, Denmark) was used as the primary antibody, and an alkaline phosphatase-conjugated, affinity-purified goat-anti-rabbit IgG H+L-antibody (from Axell Accurate Chemical and Scientific Corp, Westburg, N.Y.) served as the secondary antibody. […]"}, "[5]": {"test": "Stability of purified vWF fractions on dialysis incubation", "format": "physicochemical", "conditions": "fractions 12 to 20, 24 h dialysis incubation at 37° C., absence of inhibitors, citrate/NaCl buffer or 1 M urea buffer", "procedure": "vWF was purified by gal filtration of human cryoprecipitate, obtained from 1 l citrated plasma, an a 2.6×35-cm column of Sepharose CL-2B (Pharmacia, Uppsala, Sweden). Elution was performed with 0.13 M sodium chloride, 0.01 M citrate, 0.01 M Tris-HCl, pH 7.4. Fractions of 6 ml were collected at a flow rate of 24 ml/h. vWF antigen was measured by ELISA by using polyclonal rabbit antiserum against human vWF (RAHu/FVIII, from Nordic (Tillburg, The Netherlands), peroxidase-labeled rabbit antihuman-vWF, mouse monoclonal antibody against rabbit IgG (M737), and the kit for immunostaining (K670) (all from Dako (Glostrup, Denmark)), according to the instructions included with the kit.\nSDS agarose gels of these assays are illustrated in FIG. 2 (panels A and B)."}, "vWF [6]": {"tested_on": "vWF", "conditions": "after cleavage with plasmin; cited from earlier work"}, "r-vWF": {"tested_on": "r-vWF", "test": "Degradation of r-vWF with plasmin", "format": "biochemical"}, "plasmatic vWF": {"tested_on": "plasmatic vWF", "test": "Degradation of plasmatic vWF (cryoprecipitate) with plasmin", "format": "biochemical, human", "conditions": "overnight digestion"}}}
{"molecule": "protease: von Willebrand factor cleaving protease purified from human plasma, named multimerase; converts singlet vWF to satellite structure", "values": [{"measurement": "degradation of calf skin collagen", "setting": "calf skin collagen", "value": "no degradation"}, {"measurement": "plasmin activity", "setting": "[1]", "value": 0.2, "unit": "U/ml"}, {"measurement": "degradation of human fibrinogen", "setting": "human fibrinogen", "value": "no degradation"}, {"measurement": "multimer pattern of cryoprecipitate vWF on incubation with vWF protease", "setting": "vWF from cryoprecipitate; cryoprecipitate", "value": "loss of multimers could be observed over time"}, {"measurement": "multimer pattern of highest molecular weight vWF multimers preparation with vWF protease", "setting": "vWF from cryoprecipitate; laboratory preparation 10 U (Ag)/ml in 20 mm TBS buffer, pH 8.3", "value": "clear shift towards lower molecular weight multimers"}, {"measurement": "peptide bond of vWF cleaved", "setting": "vWF [2]", "value": 842, "unit": "Tyr-843Met"}, {"measurement": "degradation of BSA", "setting": "BSA", "value": "no degradation"}, {"measurement": "stability of the protease in solution", "setting": "[3]; in the absence of calcium, strontium and barium ions", "value": "quite stable"}, {"measurement": "protease activity after prolonged preincubation", "setting": "[3]; prolonged preincubation with calcium, strontium and barium, even at physiological salt and without urea", "value": "loss of protease activity"}, {"measurement": "multimer pattern of r-vWF after incubation with protease", "setting": "[4]; after 3 h", "value": "loss of the highest multimers"}, {"measurement": "multimer pattern of r-vWF after incubation with protease", "setting": "[4]; after 20 hours", "value": "oligomers and multimers could no longer be detected"}]}
{"molecule": "vWF: vWF purified by gel filtration of human cryoprecipitate, fractions 12 to 20", "values": [{"measurement": "stability of vWF (multimer pattern)", "setting": "[5]", "value": "very stable"}]}
{"molecule": "B1", "values": [{"measurement": "platelet agglutinating activity (ristocetin cofactor) retained by high molecular weight core region of vWF", "setting": "vWF [6]", "value": "about 70%"}, {"measurement": "degradation of recombinant vWF", "setting": "r-vWF; overnight digestion", "value": "completely degraded"}, {"measurement": "degradation of r-vWF multimers (kinetic examination)", "setting": "r-vWF; plasmin 0.2 U/ml admixed 1:1 with r-vWF, 37° C.", "value": "successive degradation of the multimers over 29 h"}, {"measurement": "degradation of r-vWF", "setting": "r-vWF; plasmin concentration reduced to 1:10", "value": "degraded more slowly"}, {"measurement": "degradation of plasmatic vWF", "setting": "plasmatic vWF", "value": "completely degraded"}]}
